Inconclusive results and toxic doses are left out.

These results are taken from PubChem BioAssay AID192 (DTP/NCI, 2004).

This assay concerns BDF1 mice, B16 melanoma ip, median survival T/C. As to the kind of experiment: NCI In Vivo Anticancer Drug Screen. Data for tumor model B16 Melanoma (intraperitoneal) in B6D2F1 (BDF1) mice. Particulars: endpoint: median survival time, higher = longer survival. The gist of the method: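 Survival or tumor size is measured after treatment of tumor-bearing mice and normalised to the vehicle-treated control group.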

The mark [1] stands for this setting: dose: 25.0 mg/kg/injection, schedule: Q01DX009 (ip), vehicle: saline with Tween-80.
[2] abbreviates: dose: 100.0 mg/kg/injection, schedule: Q04DX003 (ip), vehicle: Klucel (hydroxypropylcellulose) (HPC).
The mark [3] stands for this setting: dose: 200.0 mg/kg/injection, schedule: Q04DX003 (ip), vehicle: Klucel (hydroxypropylcellulose) (HPC).
The mark [4] stands for this setting: dose: 400.0 mg/kg/injection, schedule: Q04DX003 (ip), vehicle: Klucel (hydroxypropylcellulose) (HPC).
Where [5] appears, read: dose: 50.0 mg/kg/injection, schedule: Q01DX009 (ip), vehicle: saline with Tween-80.
Setting [6] is: dose: 100.0 mg/kg/injection, schedule: Q01DX009 (ip), vehicle: saline with Tween-80.
Setting [7] is: dose: 25.0 mg/kg/injection, schedule: Q01DX009 (ip), vehicle: saline.
Setting [8] is: dose: 100.0 mg/kg/injection, schedule: Q01DX009 (ip), vehicle: Klucel (hydroxypropylcellulose) (HPC).
Setting [9] is: dose: 200.0 mg/kg/injection, schedule: Q01DX009 (ip), vehicle: Klucel (hydroxypropylcellulose) (HPC).
Where [10] appears, read: dose: 25.0 mg/kg/injection, schedule: Q01DX009 (ip), vehicle: water.
Where [11] appears, read: dose: 50.0 mg/kg/injection, schedule: Q01DX009 (ip), vehicle: water.

Regarding `Nc1nnc[se]1`, the T/C reads like this: (dose: 3.13 mg/kg/injection, schedule: Q01DX009 (ip), vehicle: saline with Tween-80) 106 % of control; (dose: 6.25 mg/kg/injection, schedule: Q01DX009 (ip), vehicle: saline with Tween-80) 97 % of control; (dose: 12.5 mg/kg/injection, schedule: Q01DX009 (ip), vehicle: saline with Tween-80) 102 % of control; under setting [1], 115 % of control.
With `CC/C(=C\c1cccc([N+](=O)[O-])c1)C(=O)O`, the T/C runs as follows: under setting [2], 94 % of control; under setting [3], 94 % of control; under setting [4], 91 % of control.
For the molecule `C=CCNc1ccc(OC)cc1`, the T/C was 95 % of control under setting [5] and 107 % of control under setting [6].
For `O=C(/C=C/c1ccccc1)CC(O)(C(F)(F)F)C(F)(F)F`, the T/C is 90 % of control (dose: 100.0 mg/kg/injection, schedule: Q04DX003 (sc), vehicle: olive oil, sesame oil, peanut oil); 95 % of control (dose: 200.0 mg/kg/injection, schedule: Q04DX003 (sc), vehicle: olive oil, sesame oil, peanut oil); 90 % of control (dose: 400.0 mg/kg/injection, schedule: Q04DX003 (sc), vehicle: olive oil, sesame oil, peanut oil).
Consider `O=C(C=P(c1ccccc1)(c1ccccc1)c1ccccc1)c1ccccc1`, for which the T/C (dose: 100.0 mg/kg/injection, schedule: Q04DX003 (ip), vehicle: saline with Tween-80) is 102 % of control; the T/C (dose: 200.0 mg/kg/injection, schedule: Q04DX003 (ip), vehicle: saline with Tween-80) was 102 % of control; the T/C (dose: 400.0 mg/kg/injection, schedule: Q04DX003 (ip), vehicle: saline with Tween-80) was 102 % of control.
Regarding `CCOC(=O)C(C(=O)OCC)=C(C)C`, the T/C reads like this: under setting [7], 123 % of control; (dose: 50.0 mg/kg/injection, schedule: Q01DX009 (ip), vehicle: saline) 113 % of control; (dose: 100.0 mg/kg/injection, schedule: Q01DX009 (ip), vehicle: saline) 110 % of control; (dose: 200.0 mg/kg/injection, schedule: Q01DX009 (ip), vehicle: saline) 94 % of control.
Consider `CCCCCCCC(=O)CC(C)C`, for which the T/C by setting is: under setting [8], 106 % of control; under setting [9], 86 % of control.
For the molecule `COc1cc2ccc3cnccc3c2cc1OC`, the T/C under setting [10] is 99 % of control; the T/C under setting [11] was 91 % of control; the T/C (dose: 100.0 mg/kg/injection, schedule: Q01DX009 (ip), vehicle: water) was 98 % of control; the T/C (dose: 200.0 mg/kg/injection, schedule: Q01DX009 (ip), vehicle: water) was 88 % of control.
Take `COc1ccc2cc1Oc1ccc(cc1)C[C@H]1c3cc(c(OC)cc3CCN1C)Oc1c(O)c(OC)cc3c1[C@H](C2)N(C)CC3`: the T/C (dose: 25.0 mg/kg/injection, schedule: Q01DX009 (ip), vehicle: acid diluted with saline) was 116 % of control and the T/C (dose: 50.0 mg/kg/injection, schedule: Q01DX009 (ip), vehicle: acid diluted with saline) is 105 % of control.
`O=S(=O)(NC(=S)S)c1ccccc1`: the T/C is, setting by setting: (dose: 12.5 mg/kg/injection, schedule: Q01DX009 (ip), vehicle: water) 91 % of control; under setting [10], 94 % of control; under setting [11], 86 % of control.
As to `O=C(Nc1ccc(C2=NCCCN2)cc1)c1ccc(C(=O)Nc2ccc(C3=NCCCN3)cc2)nc1`, the T/C was 87 % of control (dose: 5.0 mg/kg/injection, schedule: Q01DX009 (ip), vehicle: saline with Tween-80) and 95 % of control (dose: 10.0 mg/kg/injection, schedule: Q01DX009 (ip), vehicle: saline with Tween-80).
As for `O=C(O)c1ccccc1C(=O)Nc1ccc(Cl)cc1`, the T/C under setting [6] is 105 % of control and the T/C (dose: 200.0 mg/kg/injection, schedule: Q01DX009 (ip), vehicle: saline with Tween-80) is 94 % of control.
As for `O=C1CN=C(c2ccccc2)c2cc([N+](=O)[O-])ccc2N1`, the T/C was 100 % of control (dose: 0.02 mg/kg/injection, schedule: Q01DX009 (ip), vehicle: Klucel (hydroxypropylcellulose) (HPC)); 103 % of control (dose: 0.04 mg/kg/injection, schedule: Q01DX009 (ip), vehicle: Klucel (hydroxypropylcellulose) (HPC)); 105 % of control (dose: 0.09 mg/kg/injection, schedule: Q01DX009 (ip), vehicle: Klucel (hydroxypropylcellulose) (HPC)); 101 % of control (dose: 0.19 mg/kg/injection, schedule: Q01DX009 (ip), vehicle: Klucel (hydroxypropylcellulose) (HPC)); 98 % of control (dose: 0.39 mg/kg/injection, schedule: Q01DX009 (ip), vehicle: Klucel (hydroxypropylcellulose) (HPC)); 86 % of control (dose: 3.12 mg/kg/injection, schedule: Q01DX009 (ip), vehicle: Klucel (hydroxypropylcellulose) (HPC)). Also, the T/C is, setting by setting: (dose: 12.5 mg/kg/injection, schedule: Q01DX009 (ip), vehicle: Klucel (hydroxypropylcellulose) (HPC)) 90 % of control; (dose: 50.0 mg/kg/injection, schedule: Q01DX009 (ip), vehicle: Klucel (hydroxypropylcellulose) (HPC)) 99 % of control; under setting [8], 86 % of control; (dose: 400.0 mg/kg/injection, schedule: Q01DX009 (ip), vehicle: Klucel (hydroxypropylcellulose) (HPC)) 86 % of control.
For `CCc1ccccc1NC(=O)Nc1ccccc1`, the T/C under setting [8] was 90 % of control; the T/C under setting [2] was 100 % of control; the T/C under setting [9] is 90 % of control; the T/C under setting [3] was 100 % of control; the T/C under setting [4] is 92 % of control.
Consider `CCCC1CCC(=C2C(=O)CCC2=O)O1` (centres undefined), for which the T/C (dose: 3.13 mg/kg/injection, schedule: Q01DX009 (ip), vehicle: saline) was 102 % of control; the T/C (dose: 6.25 mg/kg/injection, schedule: Q01DX009 (ip), vehicle: saline) was 100 % of control; the T/C (dose: 12.5 mg/kg/injection, schedule: Q01DX009 (ip), vehicle: saline) is 91 % of control; the T/C under setting [7] was 89 % of control.
For `Cc1cccc2c(Nc3ccc(NS(C)(=O)=O)cc3)c3ccc([N+](=O)[O-])cc3nc12`, the T/C (dose: 8.0 mg/kg/injection, schedule: Q01DX009 (ip), vehicle: saline with Tween-80) was 155 % of control and the T/C (dose: 12.0 mg/kg/injection, schedule: Q01DX009 (ip), vehicle: saline with Tween-80) is 194 % of control.
For `CC(=O)[O][Hg][c]1cc(-c2ccc(N=Nc3c(S(=O)(=O)O)cc4cccc(N)c4c3O)cc2)ccc1N=Nc1c(S(=O)(=O)O)cc2cccc(N)c2c1O`, the T/C is 95 % of control (dose: 0.75 mg/kg/injection, schedule: Q01DX009 (ip), vehicle: saline with Tween-80); 90 % of control (dose: 1.5 mg/kg/injection, schedule: Q01DX009 (ip), vehicle: saline with Tween-80); 102 % of control (dose: 1.5 mg/kg/injection, schedule: Q04DX003 (ip), vehicle: saline with Tween-80); 86 % of control (dose: 3.0 mg/kg/injection, schedule: Q04DX003 (ip), vehicle: saline with Tween-80).
Take `Cn1c(=O)c2[nH]c(Cc3cccc(O)c3)nc2n(C)c1=O`: the T/C is 94 % of control (dose: 3.12 mg/kg/injection, schedule: Q01DX009 (ip), vehicle: suspension in saline); 96 % of control (dose: 6.25 mg/kg/injection, schedule: Q01DX009 (ip), vehicle: suspension in saline); 94 % of control (dose: 100.0 mg/kg/injection, schedule: Q01DX009 (ip), vehicle: suspension in saline).
For `CCN(CC)c1nc(N(CC)CC)nc(N(CC)CC)n1`, the T/C under setting [1] is 89 % of control and the T/C under setting [5] is 94 % of control.
